Experimental data as given in patent US11465982B2, “Pyridazines” (Boehringer Ingelheim International GmbH, priority 2019, dated 2022).

What was measured:
plasma LPA = experiment: Assay C: In Vivo (plasma LPA reduction after oral application to rats); parameters: species or system rat; details: 5 mg/kg, plasma 8 hours post application, vs baseline, sum of LPA 16:0, 18:0, 18:1, 18:2, 20:4
Procedure: The test substance was solubilized in 0.5% natrosol supplemented with 0.015% Tween 80 for oral application to rats at a dose of 5 mg/kg. Blood samples were collected before compound administration and 8 hours post application on ice using EDTA as coagulation agent. Subsequently, plasma was prepared by centrifugation and stored until analysis at −20° C.
LPAs from plasma samples were extracted by using the procedure described by Scherer et al. (Clinical chemistry 2009, 55, 1218-22). 35 μL of heparinized plasma was mixed with 200 μL 40 mM disodium hydrogen phosphate buffer containing 30 mM citric acid (pH 4) and 1 μM 17:0 LPA (internal standard). Subsequently, 500 μL butanol was added and shaken vigorously for 10 min. Samples were centrifuged afterwards at 4000 rpm, 4° C., for 10 min. 500 μL of the organic upper phase was transferred to a fresh 96-deep-well plate and evaporated with a gentle nitrogen flow of 15 psi for 45 min. The resultant residual was dissolved in 100 μL ethanol prior to LC-MS analysis.
LC-MS Method for the Analytic of In Vivo Samples
A Triple Quad 6500 (ABSciex, Toronto, Canada) was equipped with an Agilent 1290 LC system (Agilent, Santa Clara, Calif.) a CTC autosampler and an Atlantis 50×2.1-mm, 3-μm HILIC LC column (Waters, Elstree, UK). Eluent A contained 0.2% formic acid and 50 mM ammonium formate in water, whereas eluent B consisted of 0.2% formic acid in acetonitrile. […] At 1.8 min, solvent B was set back to 95% and stayed constant for 0.7 min for re-equilibration of the column. The following LPA species were monitored (DP: declustering potential and CE: collision energy): 16:0 LPA at 409.2/152.8, DP=−150, CE=−28; 18:0 LPA at 437.3/152.8, DP=−60, CE=−28; 18:1 LPA at 435.2/152.8, DP=−40, CE=−28; 18:2 LPA at 433.2/152.8, DP=−150, CE=−28; 20:4 LPA at 457.2/152.8, DP=−100, CE=−29 and 17:0 LPA at 423.5/152.8, DP=−100, CE=−36. LPA depletion in percent was calculated based on the baseline LPA levels before test compound application. The sum of LPA refers to the species 16:0; 18:0; 18:1; 18:2 and 20:4

ATX in human whole blood = ATX in human whole blood (Homo sapiens (Human), UniProt Q13822); experiment: Assay B: Whole-Blood ATX Assay; assay type: biochemical; details: 1 h at 37° C., formation of 18:2 LPA
Procedure: 45 μL human whole-blood was supplemented with 5 μL of the test compound, dissolved in phosphate-buffered saline (concentration range 0.12 nM-100 μM). This mixture was incubated for 1 h at 37° C. and stopped by addition of 100 μL 40 mM disodium hydrogen phosphate buffer containing 30 mM citric acid (pH 4) and 1 μM 17:0 LPA (internal standard). LPA was extracted by addition of 500 μL 1-butanol, followed by 10-min centrifugation at 4000 rpm, 4° C. Prom the resultant organic supernatant, a 200 μL aliquot was transferred into a 96-deep-well plate and transferred to the RapidPire-based MS/MS measurement.
The RapidPire autosampler was coupled to a binary pump (Agilent 1290) and a Triple Quad 6500 (ABSciex, Toronto, Canada). This system was equipped with a 10-μL loop, 5-μL Waters Atlantis HILIC cartridge (Waters, Elstree, UK), 90% acetonitrile containing 10 mM ammonium acetate as eluent A and 40% acetonitrile containing 10 mM ammoniumacetate as eluent B. For details see (Bretschneider et al., SLAS Discovery, 2017, 22, 425-432). The MS was operated in negative mode with a source temperature of 550° C., curtain gas=35, gas 1=65, and gas 2=80. The following transitions and MS parameters (DP: declustering potential and CE: collision energy) for the respective LPAs were determined: 18:2 LPA at 433.2/152.8, DP=−150, CE=−27 and 17:0 LPA at 423.5/152.8, DP=−100.
The formation of 18:2 LPA was monitored and evaluated as ratio to 17:0 LPA.

Human ATX = Human ATX (Homo sapiens (Human), UniProt Q13822); experiment: Assay A: Biochemical ATX Assay; details: 5 nM recombinant ATX, 18:1 LPC substrate, 2-h incubation at room temperature, formation of 18:1 LPA
Procedure: 5 nM recombinant ATX (Cayman Chemicals) was supplemented to 50 mM Tris buffer (pH 8.0) containing 3 mM KCl, 1 mM CaCl2, 1 mM MgCl2 0.14 mM NaCl, and 0.1% bovine serum albumin. Test compounds were dissolved in DMSO and tested in the range of 0.1 nM to 10 μM. The enzymatic reaction (22.5 μL) was started by addition of 2.5 μL 10 μM 18:1 LPC (Avanti Lipids, Alabaster, Ala., USA). After 2-h incubation at room temperature, the reaction was stopped by addition of 20 μL water containing 500 nM 20:4 LPA as internal standard and 100 μL 1-butanol for extracting LPA. Subsequently, the plates were centrifuged at 4000 rpm, 4° C., for 2 min. The resultant upper butanol phase was directly used for injection at a RapidFire system (Agilent).
The RapidFire autosampler was coupled to a binary pump (Agilent 1290) and a Triple Quad 6500 (ABSciex, Toronto, Canada). This system was equipped with a 10-μL loop, 5-μL Waters Atlantis HILIC cartridge (Waters, Elstree, UK), 90% acetonitrile containing 10 mM ammonium acetate as eluent A and 40% acetonitrile containing 10 mM ammoniumacetate as eluent B. For details see (Bretschneider et al., SLAS Discovery, 2017). 1 The MS was operated in negative mode with a source temperature of 550° C., curtain gas=35, gas 1=65, and gas 2=80. The following transitions and MS parameters (DP: declustering potential and CE: collision energy) for the respective LPAs were determined: 18:1 LPA at 435.2/152.8, DP=−40, CE=−28 and 20:4 LPA at 457.2/152.8, DP=−100, CE=−27).
The formation of 18:1 LPA was monitored and evaluated as ratio to 20:4 LPA.

SMILES	IC50 (ATX in human whole blood)	IC50 (Human ATX)	LPA reduction at 8 h (plasma LPA)
CN1C(=O)NCC12CCN(c1ccc(CNC(=O)C3(c4ccc(OCc5ccc(C(F)F)nc5)nn4)CC3)cc1)CC2 [Example 1.9]	9.4 nM	4.5 nM	–
CC(=O)N1CCC12CN(c1ccc(CNC(=O)C3(c4ccc(OCc5ccc(C(F)(F)F)nc5)nn4)CC3)cc1)C2 [Example 1.11]	10 nM	2.6 nM	–
CC(=O)N1CCN(c2ccc(CNC(=O)C3(c4ccc(OCc5ccc(C(F)(F)F)nc5)nn4)CC3)cc2)CC1 [Example 1.12]	10.2 nM	4.3 nM	83.9%
CN1C(=O)NCC12CCN(c1ccc(CNC(=O)C3(c4ccc(OCc5ccc(C(F)(F)F)nc5)nn4)CC3)cc1)CC2 [Example 1.13]	10.5 nM	2.8 nM	–
CC(=O)N1CCC2(C1)CN(c1ccc(CNC(=O)C3(c4ccc(OCc5ccc(C(F)(F)F)nc5)nn4)CC3)cc1)C2 [Example 1.14]	11.1 nM	4.9 nM	–
CC(=O)N1CCN(c2ccc(CNC(=O)C3(c4ccc(OCc5ccc(C(F)(F)F)nc5)nn4)CC3)cc2C(F)(F)F)CC1 [Example 1.15]	11.8 nM	2 nM	–
CC(=O)N1CC2CC1CN2c1ccc(CNC(=O)C2(c3ccc(OCc4ccc(C(F)(F)F)nc4)nn3)CC2)cc1 (centres unmarked) [Example 1.18]	10.8 nM	3.2 nM	–
CC(=O)N1CCN(c2ccc(CNC(=O)C3(c4ccc(OCc5ccc(C(F)(F)F)nc5)nn4)CC3)cc2)CC1(C)C [Example 1.19]	8.3 nM	2.2 nM	–
CC(=O)N1C[C@@H]2CN(c3ccc(CNC(=O)C4(c5ccc(OCc6ccc(C(F)(F)F)nc6)nn5)CC4)cc3)C[C@@H]2C1 [Example 1.25]	12.4 nM	3.2 nM	–
CC(=O)N1CCN(c2ccc(CNC(=O)C3(c4ccc(OCc5ccc(C(F)F)nc5)nn4)CC3)cn2)CC1 [Example 1.27]	12.1 nM	–	–
CC(=O)N1CCC2(CC1)CN(c1ccc(CNC(=O)C3(c4ccc(OCc5ccc(C(F)(F)F)nc5)nn4)CC3)cn1)C2 [Example 1.30]	15.5 nM	3.4 nM	–
CC(=O)N1CCC(c2ccc(CNC(=O)C3(c4ccc(OCc5ccc(C(F)(F)F)nc5)nn4)CC3)cc2)CC1 [Example 1.31]	10.7 nM	3.4 nM	–
CCc1nc2c(C)cc(N3CCN(CC(=O)N4CC(O)C4)CC3)cn2c1N(C)c1nc(-c2ccc(F)cc2)c(C#N)s1 [Example 2 in WO2014/139882, reference compound]	–	–	58.1%

The remaining compounds from weak to strong by IC50 (ATX in human whole blood), led by results:

IC50 (ATX in human whole blood)	IC50 (Human ATX)	SMILES	LPA reduction at 8 h (plasma LPA)
7.3 nM	4.1 nM	CC(=O)N1CC2(CCN(c3ccc(CNC(=O)C4(c5ccc(OCc6ccc(C(F)F)nc6)nn5)CC4)cc3)C2)C1 [Example 1.8]	78.2%
7 nM	2.4 nM	O=C1CCCN1C1CCN(c2ccc(CNC(=O)C3(c4ccc(OCc5ccc(C(F)(F)F)nc5)nn4)CC3)cc2)CC1 [Example 1.10]	–
6.7 nM	4 nM	CC(=O)N1CCN(c2ccc(CNC(=O)C3(c4ccc(OCc5ccc(C(F)(F)F)nc5)nn4)CC3)cc2)C(C)(C)C1 [Example 1.20]	–
6.5 nM	2.2 nM	CC(=O)N1CC2(C1)CN(c1ccc(CNC(=O)C3(c4ccc(OCc5ccc(C(F)(F)F)nc5)nn4)CC3)cc1)C2 [Example 1.17]	96.9%
6.4 nM	3.2 nM	CC(=O)N1CCC2(CC1)CN(c1ccc(CNC(=O)C3(c4ccc(OCc5ccc(C(F)(F)F)nc5)nn4)CC3)nc1)C2 [Example 1.28]	–
5.7 nM	8.9 nM	CN1CC2(CC1=O)CN(c1ccc(CNC(=O)C3(c4ccc(OCc5ccc(C(F)(F)F)nc5)nn4)CC3)cc1)C2 [Example 1.7]	–
5.4 nM	3.4 nM	CC(=O)N1CCN(c2ccc(CNC(=O)C3(c4ccc(OCc5ccc(C(F)F)nc5)nn4)CC3)cc2)CC1 [Example 1.16]	95.5%
5.1 nM	5.2 nM	CC(=O)N1CCC2(CC1)CN(c1ccc(CNC(=O)C3(c4ccc(OCc5ccc(C(F)F)nc5)nn4)CC3)nc1)C2 [Example 1.29]	–
4.9 nM	3.6 nM	CC(=O)N1CCN(c2ccc(CNC(=O)C3(c4ccc(OCc5ccc(C(F)(F)F)nc5)nn4)CC3)c(C(F)(F)F)c2)CC1 [Example 1.23]	–
4.7 nM	2.4 nM	CC(=O)N1CCN(c2ccc(CNC(=O)C3(c4ccc(OCc5ccc(C(F)(F)F)nc5)nn4)CC3)cc2F)CC1 [Example 1.6]	–
4.6 nM	3.8 nM	CC(=O)N1C[C@@H]2CN(c3ccc(CNC(=O)C4(c5ccc(OCc6ccc(C(F)F)nc6)nn5)CC4)cc3)C[C@@H]2C1 [Example 1.24]	–
4.2 nM	3.8 nM	CC(=O)N1CCN(c2ccc(CNC(=O)C3(c4ccc(OCc5ccc(C(F)(F)F)nc5)nn4)CC3)c(F)c2)CC1 [Example 1.5]	–
3.9 nM	4.1 nM	CC(=O)N1CC2(C1)CN(c1ccc(CNC(=O)C3(c4ccc(OCc5ccc(C(F)F)nc5)nn4)CC3)cc1F)C2 [Example 1.26]	–
3.1 nM	4 nM	CC(=O)N1CCC2(CC1)CN(c1ccc(CNC(=O)C3(c4ccc(OCc5ccc(C(F)(F)F)nc5)nn4)CC3)cc1)C2 [Example 1.1, N-(4-(7-acetyl-2,7-diazaspiro[3.5]nonan-2-yl)benzyl)-1-(6-((6-(trifluoromethyl)pyridin-3-yl)methoxy)pyridazin-3-yl)cyclopropane-1-carboxamide]	93.7%
3.1 nM	4 nM	CC(=O)N1CC2(C1)CN(c1ccc(CNC(=O)C3(c4ccc(OCc5ccc(C(F)F)nc5)nn4)CC3)cc1)C2 [Example 1.4]	98.2%
2.9 nM	4.4 nM	CC(=O)N1CC2(C1)CN(c1ccc(CNC(=O)C3(c4ccc(OCc5ccc(C(F)(F)F)nc5)nn4)CC3)cc1F)C2 [Example 1.21]	93.8%
2.8 nM	3.7 nM	CC(=O)N1CCC2(CC1)CN(c1ccc(CNC(=O)C3(c4ccc(OCc5ccc(C(F)F)nc5)nn4)CC3)cc1)C2 [Example 1.3]	95.0%
2.5 nM	2.5 nM	CC(=O)N1CCN(c2ccc(CNC(=O)C3(c4ccc(OCc5ccc(C(F)F)nc5)nn4)CC3)c(C(F)(F)F)c2)CC1 [Example 1.22]	–
2.4 nM	3.5 nM	CN1CC2(CC1=O)CN(c1ccc(CNC(=O)C3(c4ccc(OCc5ccc(C(F)F)nc5)nn4)CC3)cc1)C2 [Example 1.2]	90.6%
